Measured values published in patent US12264156B2, “Compounds and pharmaceutical compositions thereof for the treatment of diseases” (GALAPAGOS NV, priority 2018, dated 2025).

Columns and labels:
Assay type in all cases: biochemical
Conditions in all cases: ADP-Glo SIK kinase assay
[1] = target: T1, SIK2 (Homo sapiens, UniProt Q9H0K1); assay: ADP-Glo kinase assay, SIK2
T1 construct: purchased ThermoFisher Scientific PV4792
In short: (§1)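 Enzyme–substrate mix was started with ATP and incubated 120 min at RT. ADP formed was quantified by ADP-Glo: 40 min ATP depletion, then 30 min detection reagent converting ADP to ATP for luciferase luminescence, which rises with kinase activity. Controls: 1% DMSO and 10 μM staurosporine (final).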

[2] = target: T2, SIK1 (Homo sapiens, UniProt P57059); assay: ADP-Glo kinase assay, SIK1
T2 construct: purchased Carna Biosciences 02-131
T2 sequence (P57059 whole entry): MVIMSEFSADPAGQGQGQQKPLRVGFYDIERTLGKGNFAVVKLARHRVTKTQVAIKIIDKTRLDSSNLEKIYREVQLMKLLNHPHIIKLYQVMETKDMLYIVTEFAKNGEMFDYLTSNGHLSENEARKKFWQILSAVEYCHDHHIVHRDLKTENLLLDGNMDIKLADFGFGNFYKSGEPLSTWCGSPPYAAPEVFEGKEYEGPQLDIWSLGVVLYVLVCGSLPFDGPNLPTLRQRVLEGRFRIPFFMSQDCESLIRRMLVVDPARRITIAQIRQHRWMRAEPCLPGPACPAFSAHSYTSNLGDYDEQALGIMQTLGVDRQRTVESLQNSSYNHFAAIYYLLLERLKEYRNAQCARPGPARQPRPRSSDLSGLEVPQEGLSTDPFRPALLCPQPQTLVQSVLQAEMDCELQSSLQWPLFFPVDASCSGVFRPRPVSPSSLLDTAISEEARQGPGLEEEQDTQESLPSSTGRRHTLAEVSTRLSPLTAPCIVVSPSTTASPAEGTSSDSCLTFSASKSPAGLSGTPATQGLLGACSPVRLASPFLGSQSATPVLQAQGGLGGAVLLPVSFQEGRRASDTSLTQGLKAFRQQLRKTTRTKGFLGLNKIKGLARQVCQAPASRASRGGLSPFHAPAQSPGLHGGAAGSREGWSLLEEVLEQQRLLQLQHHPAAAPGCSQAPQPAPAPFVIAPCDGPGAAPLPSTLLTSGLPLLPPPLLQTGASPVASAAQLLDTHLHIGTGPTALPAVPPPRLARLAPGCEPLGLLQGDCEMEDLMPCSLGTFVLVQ
In short: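 Wells with 1% DMSO or 10 μM staurosporine (final) define the control window. The kinase reaction with substrate and ATP runs 120 min at RT, followed by ADP-Glo detection: ATP depletion (40 min) and ADP-derived luminescence (30 min).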

[3] = target: T3, SIK3 (Homo sapiens, UniProt Q9Y2K2); assay: ADP-Glo kinase assay, SIK3
T3 construct: purchased SignalChem S12-11G-100
T3 sequence (Q9Y2K2 whole entry): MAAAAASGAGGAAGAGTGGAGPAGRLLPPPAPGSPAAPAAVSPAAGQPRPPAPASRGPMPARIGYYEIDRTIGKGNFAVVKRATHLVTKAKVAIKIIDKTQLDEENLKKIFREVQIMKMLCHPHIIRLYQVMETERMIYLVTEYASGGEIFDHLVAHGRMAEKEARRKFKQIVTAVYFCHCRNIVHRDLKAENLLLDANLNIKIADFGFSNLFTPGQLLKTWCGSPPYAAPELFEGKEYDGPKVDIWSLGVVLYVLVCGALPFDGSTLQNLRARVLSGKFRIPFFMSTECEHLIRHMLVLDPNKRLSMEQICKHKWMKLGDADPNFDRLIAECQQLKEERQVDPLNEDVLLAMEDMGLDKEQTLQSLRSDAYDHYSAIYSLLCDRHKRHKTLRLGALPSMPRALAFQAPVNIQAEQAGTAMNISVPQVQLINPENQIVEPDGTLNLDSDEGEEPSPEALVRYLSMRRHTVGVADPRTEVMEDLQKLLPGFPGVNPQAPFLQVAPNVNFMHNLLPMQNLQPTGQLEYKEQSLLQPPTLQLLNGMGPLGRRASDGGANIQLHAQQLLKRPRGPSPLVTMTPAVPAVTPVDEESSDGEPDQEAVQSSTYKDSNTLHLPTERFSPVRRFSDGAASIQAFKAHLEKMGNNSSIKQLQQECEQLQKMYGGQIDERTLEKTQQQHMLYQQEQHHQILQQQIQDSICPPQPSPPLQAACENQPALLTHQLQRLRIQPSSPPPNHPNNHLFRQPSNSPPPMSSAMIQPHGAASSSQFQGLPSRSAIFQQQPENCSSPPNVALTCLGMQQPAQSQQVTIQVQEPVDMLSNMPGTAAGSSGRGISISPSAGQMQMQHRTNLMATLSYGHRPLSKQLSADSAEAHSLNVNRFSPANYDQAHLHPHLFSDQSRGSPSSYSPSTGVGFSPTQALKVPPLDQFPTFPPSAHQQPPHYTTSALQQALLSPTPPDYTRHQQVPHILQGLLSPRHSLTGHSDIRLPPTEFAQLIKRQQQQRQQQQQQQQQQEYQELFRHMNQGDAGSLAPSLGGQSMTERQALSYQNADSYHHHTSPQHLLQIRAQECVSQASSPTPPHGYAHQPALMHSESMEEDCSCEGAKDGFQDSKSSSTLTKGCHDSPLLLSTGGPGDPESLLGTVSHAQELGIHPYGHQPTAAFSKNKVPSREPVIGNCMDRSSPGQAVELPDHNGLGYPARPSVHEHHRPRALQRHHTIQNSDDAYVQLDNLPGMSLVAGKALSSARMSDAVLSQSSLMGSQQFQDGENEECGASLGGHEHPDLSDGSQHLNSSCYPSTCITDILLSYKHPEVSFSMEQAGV
In short: as §1

T1 sequence (Q9H0K1 whole entry): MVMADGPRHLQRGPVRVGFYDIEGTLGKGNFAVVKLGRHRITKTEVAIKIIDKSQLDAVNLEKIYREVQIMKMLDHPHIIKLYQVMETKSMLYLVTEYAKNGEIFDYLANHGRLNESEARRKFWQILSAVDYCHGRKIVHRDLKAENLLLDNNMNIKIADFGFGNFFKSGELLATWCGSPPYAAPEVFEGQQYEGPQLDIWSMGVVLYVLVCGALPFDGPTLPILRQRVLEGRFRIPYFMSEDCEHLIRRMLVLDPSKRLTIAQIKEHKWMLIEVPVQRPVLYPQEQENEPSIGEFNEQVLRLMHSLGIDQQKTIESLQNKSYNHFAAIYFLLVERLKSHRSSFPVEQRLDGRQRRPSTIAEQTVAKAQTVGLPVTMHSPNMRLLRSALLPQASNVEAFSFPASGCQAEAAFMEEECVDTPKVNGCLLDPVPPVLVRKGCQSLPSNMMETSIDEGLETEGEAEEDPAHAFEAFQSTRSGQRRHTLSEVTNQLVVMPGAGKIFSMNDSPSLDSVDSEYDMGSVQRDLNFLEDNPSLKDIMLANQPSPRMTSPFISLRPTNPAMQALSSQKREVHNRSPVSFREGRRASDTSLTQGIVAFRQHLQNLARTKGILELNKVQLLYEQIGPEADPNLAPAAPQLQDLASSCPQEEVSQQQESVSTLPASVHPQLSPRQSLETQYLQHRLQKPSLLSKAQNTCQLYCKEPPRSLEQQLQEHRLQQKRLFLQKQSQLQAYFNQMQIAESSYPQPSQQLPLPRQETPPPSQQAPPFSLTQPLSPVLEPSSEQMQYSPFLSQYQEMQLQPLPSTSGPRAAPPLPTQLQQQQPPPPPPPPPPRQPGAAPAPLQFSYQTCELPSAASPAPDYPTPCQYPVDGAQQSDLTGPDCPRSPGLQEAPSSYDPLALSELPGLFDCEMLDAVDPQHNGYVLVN

Structure (SMILES)	IC50 [1] [nM]	IC50 [2] [nM]	IC50 [3] [nM]
COc1cc(-c2cnc3cc(OCCN4CC(C)OC(C)C4)ccn23)cc(OC(F)F)c1C(=O)NC1CC1 (stereo not drawn) [Cpd 177, N-cyclopropyl-2-(difluoromethoxy)-4-[7-[2-(2,6-dimethylmorpholin-4-yl)ethoxy]imidazo [1,2-a]pyridin-3-yl]-6-methoxy-benzamide]	0.01 to 10	10 to 100	0.01 to 10
COc1cc(-c2cnc3cc(OC[C@H]4CCCN4CC(F)F)ccn23)cc(OC(F)F)c1C(=O)NC1CC1 [compound 80, N-cyclopropyl-4-[7-[[(2R)-1-(2,2-difluoroethyl)pyrrolidin-2-yl]methoxy]imidazo[1,2-a]pyridin-3-yl]-2-(difluoromethoxy)-6-methoxy-benzamide]	0.01 to 10	10 to 100	0.01 to 10
COc1cc(-c2cnc3cc(OCCN4C5CCC4COC5)ccn23)cc2c1C(=O)N(CC(F)(F)F)CC2 [compound 246, 8-methoxy-6-[7-[2-(3-oxa-8-azabicyclo[3.2.1]octan-8-yl)ethoxy]imidazo[1,2-a]pyridin-3-yl]-2-(2,2,2-trifluoroethyl)-3,4-dihydroisoquinolin-1-one]	0.01 to 10	100 to 500	10 to 100
COc1cc(-c2cnc3cc(OCc4cncn4C)ccn23)cc2c1C(=O)N(CC(F)(F)F)CC2 [compound 85, 8-methoxy-6-[7-[(3-methylimidazol-4-yl)methoxy]imidazo[1,2-a]pyridin-3-yl]-2-(2,2,2-trifluoroethyl)-3,4-dihydroisoquinolin-1-one]	0.01 to 10	> 500	0.01 to 10
COc1cc(-c2cnc3cc(OCC4(N)CCOC4)ccn23)cc(OC(F)F)c1C(=O)NC1CC1 (stereo not drawn) [compound 176, 4-[7-[(3-aminotetrahydrofuran-3-yl)methoxy]imidazo[1,2-a]pyridin-3-yl]-N-cyclopropyl-2-(difluoromethoxy)-6-methoxy-benzamide]	0.01 to 10	10 to 100	0.01 to 10
COc1cc(-c2cnc3cc(OC4CC(C#N)C4)ccn23)cc(OC(F)F)c1C(=O)NC1CC1 (stereo not drawn) [compound 164, 4-[7-(3-cyanocyclobutoxy)imidazo [1,2-a]pyridin-3-yl]-N-cyclopropyl-2-(difluoromethoxy)-6-methoxy-benzamide]	0.01 to 10	10 to 100	0.01 to 10
COc1cc(-c2cnc3cc(OCC4(C)CNC4)ccn23)cc2c1C(=O)N(CC(F)(F)F)CC2 [Cpd 251, 8-methoxy-6-[7-[(3-methylazetidin-3-yl)methoxy]imidazo [1,2-a]pyridin-3-yl]-2-(2,2,2-trifluoroethyl)-3,4-dihydroisoquinolin-1-one]	10 to 100	100 to 500	0.01 to 10
COc1cc(-c2cnc3cc(OCCCN4CCc5c(ncn5C)C4)ccn23)cc(OC(F)F)c1C(=O)NC1CC1 [compound 309, N-cyclopropyl-2-(difluoromethoxy)-6-methoxy-4-[7-[3-(1-methyl-6,7-dihydro-4H-imidazo[4,5-c]pyridin-5-yl)propoxy]imidazo[1,2-a]pyridin-3-yl]benzamide]	0.01 to 10	10 to 100	0.01 to 10
COc1cc(-c2cnc3cc(OCCN4CC(F)(F)C4)ccn23)cc(OC(F)F)c1C(=O)NC1CC1 [compound 186, N-cyclopropyl-4-[7-[2-(3,3-difluoroazetidin-1-yl)ethoxy]imidazo[1,2-a]pyridin-3-yl]-2-(difluoromethoxy)-6-methoxy-benzamide]	0.01 to 10	10 to 100	0.01 to 10
COc1cc(-c2cnc3cc(OCC4CCC(F)(F)C4)ccn23)cc(OC(F)F)c1C(=O)NC1CC1 (stereo not drawn) [compound 75, N-cyclopropyl-4-[7-[(3,3-difluorocyclopentyl)methoxy]imidazo[1,2-a]pyridin-3-yl]-2-(difluoromethoxy)-6-methoxy-benzamide]	0.01 to 10	0.01 to 10	0.01 to 10
COc1cc(-c2cnc3cc(OCc4cnn(C)c4)ccn23)cc(OC(F)F)c1C(=O)NC1CC1 [compound 199, N-cyclopropyl-2-(difluoromethoxy)-6-methoxy-4-[7-[(1-methylpyrazol-4-yl)methoxy]imidazo[1,2-a]pyridin-3-yl]benzamide]	0.01 to 10	10 to 100	0.01 to 10
COc1cc(-c2cnc3cc(OCCCN4CCc5ncncc5C4)ccn23)cc(OC(F)F)c1C(=O)NC1CC1 [compound 304, N-cyclopropyl-2-(difluoromethoxy)-4-[7-[3-(7,8-dihydro-5H-pyrido[4,3-d]pyrimidin-6-yl)propoxy]imidazo[1,2-a]pyridin-3-yl]-6-methoxy-benzamide]	0.01 to 10	10 to 100	0.01 to 10

The next lines start with the values.

IC50 [1] [nM]	IC50 [2] [nM]	IC50 [3] [nM]	Structure (SMILES)
0.01 to 10	0.01 to 10	0.01 to 10	COc1cc(-c2cnc3cc(OC[C@H]4CCCN(CCC#N)C4)ccn23)cc(OC(F)F)c1C(=O)NC1CC1 [compound 351, 4-[7-[[(3S)-1-(2-cyanoethyl)-3-piperidyl]methoxy]imidazo [1,2-a]pyridin-3-yl]-N-cyclopropyl-2-(difluoromethoxy)-6-methoxy-benzamide]
100 to 500	> 500	10 to 100	COc1cc(-c2cnc3cc(OCc4ccnn4C)ccn23)cnc1C(=O)NCC(F)(F)F [compound 262, 3-methoxy-5-[7-[(2-methylpyrazol-3-yl)methoxy]imidazo[1,2-a]pyridin-3-yl]-N-(2,2,2-trifluoroethyl)pyridine-2-carboxamide]
0.01 to 10	0.01 to 10	0.01 to 10	COc1cc(-c2cnc3cc(OCC4CN(C)C(=O)O4)ccn23)cc(OC(F)F)c1C(=O)NC1CC1 (stereo not drawn) [compound 228, N-cyclopropyl-2-(difluoromethoxy)-6-methoxy-4-[7-[(3-methyl-2-oxo-oxazolidin-5-yl)methoxy]imidazo[1,2-a]pyridin-3-yl]benzamide]
0.01 to 10	0.01 to 10	0.01 to 10	COc1cc(-c2cnc3cc(OCC4CCCCN4C(C)=O)ccn23)cc(OC(F)F)c1C(=O)NC1CC1 (stereo not drawn) [Cpd 141, 4-[7-[(1-acetyl-2-piperidyl)methoxy]imidazo [1,2-a]pyridin-3-yl]-N-cyclopropyl-2-(difluoromethoxy)-6-methoxy-benzamide]
0.01 to 10	10 to 100	0.01 to 10	COc1cc(-c2cnc3cc(OCC4(F)CNC4)ccn23)cc(OC(F)F)c1C(=O)NC1CC1 [compound 207, N-cyclopropyl-2-(difluoromethoxy)-4-[7-[(3-fluoroazetidin-3-yl)methoxy]imidazo[1,2-a]pyridin-3-yl]-6-methoxy-benzamide]
0.01 to 10	10 to 100	0.01 to 10	COc1cc(-c2cnc3cc(OCC4CC(=O)N(C)C4)ccn23)cc(OC(F)F)c1C(=O)NC1CC1 (stereo not drawn) [compound 26, N-cyclopropyl-2-(difluoromethoxy)-6-methoxy-4-[7-[(1-methyl-5-oxo-pyrrolidin-3-yl)methoxy]imidazo[1,2-a]pyridin-3-yl]benzamide]
10 to 100	100 to 500	100 to 500	COc1cc(-c2cnc3cc(OCCCN4CCCCC4)ccn23)cc(OC(F)F)c1C(=O)N1CC(O)(CC#N)C1 [compound 355, 2-[1-[2-(difluoromethoxy)-6-methoxy-4-[7-[3-(1-piperidyl)propoxy]imidazo[1,2-a]pyridin-3-yl]benzoyl]-3-hydroxy-azetidin-3-yl]acetonitrile]
100 to 500	> 500	10 to 100	COc1cc(-c2cnc3cc(OC(C)CN4CCOCC4)ccn23)cc(OC(F)F)c1C(=O)NC1CC1 (stereo not drawn) [compound 12, N-cyclopropyl-2-(difluoromethoxy)-6-methoxy-4-[7-(1-methyl-2-morpholino-ethoxy)imidazo[1,2-a]pyridin-3-yl]benzamide]
0.01 to 10	10 to 100	0.01 to 10	COc1cc(-c2cnc3cc(OCC(C)(C)C#N)ccn23)cc(OC(F)F)c1C(=O)NC1CC1 [compound 34, 4-[7-(2-cyano-2-methyl-propoxy)imidazo[1,2-a]pyridin-3-yl]-N-cyclopropyl-2-(difluoromethoxy)-6-methoxy-benzamide]
0.01 to 10	10 to 100	0.01 to 10	COCCN(CCOc1ccn2c(-c3cc(OC)c(C(=O)NC4CC4)c(OC(F)F)c3)cnc2c1)CC(F)F [compound 237, N-cyclopropyl-4-[7-[2-[2,2-difluoroethyl(2-methoxyethyl)amino]ethoxy]imidazo[1,2-a]pyridin-3-yl]-2-(difluoromethoxy)-6-methoxy-benzamide]
0.01 to 10	10 to 100	0.01 to 10	COc1cc(-c2cnc3cc(OCCF)ccn23)cc(OC(F)F)c1C(=O)NC1CC1 [compound 36, N-cyclopropyl-2-(difluoromethoxy)-4-[7-(2-fluoroethoxy)imidazo[1,2-a]pyridin-3-yl]-6-methoxy-benzamide]
0.01 to 10	10 to 100	0.01 to 10	COc1cc(-c2cnc3cc(OCC4(F)CN(C(=O)OC(C)(C)C)C4)ccn23)cc(OC(F)F)c1C(=O)NC1CC1 [Cpd 187, tert-butyl 3-[[3-[4-(cyclopropylcarbamoyl)-3-(difluoromethoxy)-5-methoxy-phenyl]imidazo[1,2-a]pyridin-7-yl]oxymethyl]-3-fluoro-azetidine-1-carboxylate]
0.01 to 10	10 to 100	0.01 to 10	COC(=O)[C@@H]1CN(CCOc2ccn3c(-c4cc(OC)c(C(=O)NC5CC5)c(OC(F)F)c4)cnc3c2)CCO1 [compound 389, methyl (2S)-4-[2-[3-[4-(cyclopropylcarbamoyl)-3-(difluoromethoxy)-5-methoxy-phenyl]imidazo[1,2-a]pyridin-7-yl]oxyethyl]morpholine-2-carboxylate]
